The results in this text go back to article PMC7224190, “Pharmacological inhibition of PRMT7 links arginine monomethylation to the cellular stress response” (Nature Communications, 2020).

The test addresses T1, G9A (Homo sapiens, UniProt Q96KQ7).
T1 construct: gene EHMT2
T1 sequence (Q96KQ7 1-1210): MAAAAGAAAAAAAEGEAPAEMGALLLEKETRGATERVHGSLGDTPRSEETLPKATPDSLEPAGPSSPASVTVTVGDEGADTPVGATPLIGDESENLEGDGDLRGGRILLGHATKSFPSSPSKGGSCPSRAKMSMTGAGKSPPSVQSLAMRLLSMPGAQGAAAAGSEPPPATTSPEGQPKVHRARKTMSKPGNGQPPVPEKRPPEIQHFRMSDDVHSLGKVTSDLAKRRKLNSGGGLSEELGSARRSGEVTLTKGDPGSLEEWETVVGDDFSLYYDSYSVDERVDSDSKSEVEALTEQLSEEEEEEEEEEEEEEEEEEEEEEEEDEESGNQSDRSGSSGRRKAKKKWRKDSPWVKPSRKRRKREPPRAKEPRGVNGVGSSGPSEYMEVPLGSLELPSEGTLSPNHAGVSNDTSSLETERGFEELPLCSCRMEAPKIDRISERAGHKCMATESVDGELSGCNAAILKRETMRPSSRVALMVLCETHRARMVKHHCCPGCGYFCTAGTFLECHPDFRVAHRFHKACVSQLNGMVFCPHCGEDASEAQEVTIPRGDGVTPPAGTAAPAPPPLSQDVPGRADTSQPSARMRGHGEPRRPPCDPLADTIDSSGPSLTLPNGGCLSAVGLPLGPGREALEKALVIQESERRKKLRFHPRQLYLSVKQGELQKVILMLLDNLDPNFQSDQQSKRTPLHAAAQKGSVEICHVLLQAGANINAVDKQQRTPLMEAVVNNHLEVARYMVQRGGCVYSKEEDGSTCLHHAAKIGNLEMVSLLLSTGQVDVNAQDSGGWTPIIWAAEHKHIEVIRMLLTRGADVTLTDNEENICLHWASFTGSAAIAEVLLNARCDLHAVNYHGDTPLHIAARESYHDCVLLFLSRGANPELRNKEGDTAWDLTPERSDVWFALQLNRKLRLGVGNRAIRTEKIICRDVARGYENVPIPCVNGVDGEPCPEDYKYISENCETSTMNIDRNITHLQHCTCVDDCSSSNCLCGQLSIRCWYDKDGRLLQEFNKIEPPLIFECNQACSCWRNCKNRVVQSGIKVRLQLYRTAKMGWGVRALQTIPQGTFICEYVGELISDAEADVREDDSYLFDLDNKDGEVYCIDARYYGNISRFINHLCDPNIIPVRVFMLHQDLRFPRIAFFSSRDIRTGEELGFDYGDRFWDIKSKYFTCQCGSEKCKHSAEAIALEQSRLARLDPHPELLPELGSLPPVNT
In words: biochemical. Set-up: radiometric methyltransferase selectivity assay with tritiated SAM, per cent activity. The following applies: read-out: % of control remaining. The procedure, abridged: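 Radiometric methyltransferase assays with ³H-SAM and substrate near apparent Km, compound tested at 1 and 10 μM. Methyl incorporation into biotinylated substrate read by scintillation proximity after guanidine quench; no-compound = 100%, no-enzyme = 0% activity.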

Molecules are shown by their SMILES.

Take `CC1(C)O[C@@H]2[C@H](O1)[C@@H](CSCCCCNCc1cccc(-c3ccc(Cl)cc3)c1)O[C@H]2n1cnc2c(N)ncnc21` [SGC8158N]: the remaining activity at 1 µM is 99% and the remaining activity at 10 µM came out at 98%.

Regarding `Nc1ncnc2c1ncn2[C@@H]1O[C@H](CSCCCCNCc2cccc(-c3ccc(Cl)cc3)c2)[C@@H](O)[C@H]1O` [SGC8158], the remaining activity at 1 µM was 100% and the remaining activity at 10 µM was determined as 99%.
